From US20260242359A1, “IRHOM2 INHIBITORS AND USES THEREOF” (NEW YORK SOCIETY FOR THE RELIEF OF THE RUPTURED AND …, priority 2023, published 2026)
Where two headings read alike, the source gives them in different places.

Tests used:
[1] = tested on: PMA-induced release of endogenous HB-EGF from human peripheral blood mononuclear cells (PBMCs); test: Example 16: ELISA-based HB-EGF release assay, PMA-induced, PBMCs from healthy donor; type: cell-based; conditions: 10 μM final concentration, PMA 25 ng/ml, delta Buffer stimulated vs unstimulated = 100% inhibition; for inhibition at 10 µM: Homo sapiens, PBMC
Procedure: (§1) In the following study, ELISA-based HB-EGF release assays were performed to analyze the inhibitory effects of Compounds 1, 2, 3, 4, 5, and 7 on PMA-induced release of endogenous HB-EGF from primary human material obtained from healthy donor using peripheral blood mononuclear cells (PBMCs). The ELISA-based HB-EGF release assay that was used in this example is described below.
(§2) In brief, on day 1, Nunc black MaxiSorp® 96-well plates (Thermo Fisher Scientific, USA) were coated overnight with 100 μl per well of mouse anti-human HB-EGF capture antibody (provided as part of the DuoSet ELISA kit) at 2 μg/ml TBS at 4° C.
(§3) 80,000 PBMCs from healthy donor (SciRhom GmbH, Germany) in 80 μl of normal growth medium were seeded in each well of Greiner CELLSTAR V-bottom 96-well plates (Greiner Bio-One, Germany) and pre-incubated with 20 d per well of standard growth medium supplemented with Batimastat (BB94, Abcam, UK) at 50 μM as positive control (for a final concentration of 10 μM in the resulting 100 μl sample volume), compounds of the invention at 50 μM (for a final concentration of 10 μM in the resulting 100 μl sample volume) and in case of Buffer stimulated and unstimulated controls with DMSO (Carl Roth, Germany) at 50 μM (for a final concentration of 10 μM in the resulting 100 μl sample volume) at 37° C., 5% CO2 for 30 minutes. Subsequently, cells (except those for unstimulated controls) were stimulated with 20 μl per well of PMA (Sigma-Aldrich, USA) at 150 ng/ml in growth medium for a final concentration of 25 ng/ml at 37° C., 5% CO2 for 22 hours.
(§4) On day 2, the capture antibody solution was removed and MaxiSorp® plates were blocked with 300 μl per well of TBS, 1% BSA at room temperature for 1-2 hours. Meanwhile, the 96-well plates were centrifuged to pellet cells. In parallel, blocking buffer was removed from the MaxiSorp® plates and plates were washed 4 times with 350 μl TBS-T (Carl Roth, Germany) per well on a 96-head plate washer (Tecan Group, Switzerland). To avoid drying-up, 30 μl TBS were added to each well of the MaxiSorp® plates immediately, followed by the transfer of 70 μl cell-free supernatant per sample. Additionally, 100 μl recombinant human HB-EGF protein (provided as part of the DuoSet ELISA kit) diluted in TBS at defined concentrations were added to the plate as standard references. Plates were incubated at room temperature for 2 hours. After 4 times washing with 350 μl TBS-T (Carl Roth, Germany) per well on a 96-head plate washer (Tecan Group, Switzerland) and careful removal of all buffer traces after the fourth cycle, 100 μl biotinylated goat anti-human HB-EGF detection antibody (provided as part of the DuoSet ELISA kit) at 50 ng/ml TBS were added per well and, protected from direct light, plates were incubated at room temperature for 2 hours.
(§5) After 4 times washing with 350 μl TBS-T (Carl Roth, Germany) per well on a 96-head plate washer (Tecan Group, Switzerland) and careful removal of all buffer traces after the fourth cycle, 100 μl streptavidin-AP (R&D Systems, USA) diluted 1:10,000 in TBS were added to each well and, again protected from direct light, plates were incubated at room temperature for 30 minutes. Following another round of 4 times washing with 350 μl TBS-T (Carl Roth, Germany) per well on a 96-head plate washer (Tecan Group, Switzerland) and careful removal of all buffer traces after the fourth cycle, 100 μl AttoPhos substrate solution (Promega, USA) per well was added for incubation in the dark at room temperature for 1 hour. Using an infinite M1000 (Tecan Group, Switzerland) microplate reader, the fluorescence of each well was collected at an excitation wavelength of 435 nm and an emission wavelength of 555 nm.
(§6) The delta between Buffer stimulated and Buffer unstimulated was defined 100% inhibition.

[2] = tested on: PMA-induced release of endogenous HB-EGF from human THP-1 macrophage cells; test: Example 15: ELISA-based HB-EGF release assay, PMA-induced, THP-1 macrophage cells; type: cell-based; conditions: read-out: inhibition of PMA-induced release of HB-EGF from THP-1 cells
Procedure: as §1, with “from” for “from primary”, “THP-1 macrophage cells.” for “material obtained from healthy donor using peripheral blood mononuclear cells (PBMCs).”
as §2
as §3, with “40,000 THP-1 cells (American Type Culture Collection, USA) cells in” for “80,000 PBMCs from healthy donor (SciRhom GmbH, Germany) in”, “20 μl” for “20 d”, “for 23” for “for 22”
as §4, §5, §6

[3] = THP-1, 10 μM final concentration, PMA 25 ng/ml, 23 hours, delta Buffer stimulated vs unstimulated = 100% inhibition

Compound: CNC(=O)[C@H](Cc1ccccc1)NC(=O)[C@H](CC(C)C)[C@H](CSc1cccs1)C(=O)NO [Batimastat, reference compound]
- inhibition of PMA-induced release of HB-EGF from PBMCs from healthy donor ([1]; 22 hours): 107.6%
- inhibition at 10 µM ([1]; 22 h): 98.5%
- inhibition at 10 µM [2, 3]: 99.2%

Compound: CCC(=O)NCCc1c(/C=C2/C(=O)NC(=O)N(c3ccc(C)cc3C)C2=O)[nH]c2ccccc12 [Compound 1]
- inhibition at 10 µM ([1]; 22 hours): 101%
- inhibition at 10 µM ([2]; THP-1, 23 h): 95.4%

Compound: CCOC(=O)c1ccc(Nc2nc3nonc3n3nnnc23)cc1 [Compound 2]
- inhibition at 10 µM ([1]; 22 h): 100%
- inhibition at 10 µM [2, 3]: 77.5%

Compound: O=C(c1c(Cl)cccc1Cl)N1CCC(Cc2ccc(F)cc2)CC1 [Compound 3]
- inhibition at 10 µM ([1]; 22 h): 22.4%
- inhibition at 10 µM [2, 3]: 29.6%

Compound: Cc1c(C(=O)NCc2cccs2)sc(=O)n1Cc1ccccc1 [Compound 4]
- inhibition at 10 µM ([1]; 22 h): 38.7%
- inhibition at 10 µM [2, 3]: 62.5%

Compound: Cc1c(C(=O)NCc2cccs2)sc(=O)n1Cc1ccccc1F [Compound 5]
- inhibition at 10 µM ([1]; 22 h): 34%
- inhibition at 10 µM [2, 3]: 55.1%

Compound: Cc1c(C(=O)NCc2ccco2)sc(=O)n1Cc1ccccc1F [Compound 7]
- inhibition at 10 µM ([1]; 22 h): 107%
- inhibition at 10 µM [2, 3]: 95.1%
